Experimental data taken from US7632829B2, “Diazepan derivatives” (Hoffmann-La Roche Inc., priority 2006, dated 2009).

Target: T1, human chemokine receptor 2 isoform B (Homo sapiens, UniProt P41597)
T1 construct: host or cells: CHOK1-CCR2B-A5 (CHO-K1)
T1 sequence (P41597 1-360 isoform P41597-2): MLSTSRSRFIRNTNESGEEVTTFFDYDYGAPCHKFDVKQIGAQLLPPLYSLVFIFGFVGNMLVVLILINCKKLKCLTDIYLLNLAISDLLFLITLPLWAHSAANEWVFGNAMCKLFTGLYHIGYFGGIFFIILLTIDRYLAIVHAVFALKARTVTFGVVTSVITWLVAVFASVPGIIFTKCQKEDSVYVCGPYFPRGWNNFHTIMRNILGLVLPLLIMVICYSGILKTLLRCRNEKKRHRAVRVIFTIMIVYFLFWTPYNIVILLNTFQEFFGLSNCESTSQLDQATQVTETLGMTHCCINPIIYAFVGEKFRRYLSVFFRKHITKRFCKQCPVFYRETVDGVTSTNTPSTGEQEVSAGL
Experiment: Calcium mobilization assay (FLIPR, CHOK1-CCR2B-A5 cells, 20 nM MCP-1)
Assay type: cell-based
Details: Ca mobilisation assay, CCR2, antagonist activity vs 20 nM MCP-1
Method: CHOK1-CCR2B-A5 cells (from Euroscreen) stably overexpressing the human chemokine receptor 2 isoform B were cultured in Nutrient Hams F12 medium supplemented with 5% FBS, 100 U/ml penicillin, 100 μg/ml streptomycin, 400 μg/ml G418 and 5 μg/ml puromycin.
For the assay cells were grown overnight in 384-well black clear flat bottom polystyrene plates (Costar) at 37° C. at 5% CO2. After washing with DMEM, 20 mM Hepes, 2.5 mM probenecid, 0.1% BSA (DMEM assay buffer) cells were loaded with 4 μM Fluo-4 in the same DMEM assay buffer for 2 hours at 30° C. Excess dye was removed and cells were washed with DMEM assay buffer. 384-well compound plates were prepared with DMEM assay buffer/0.5% DMSO with or without various concentrations of test compounds. Usually compounds were tested for agonist and antagonist activity.
Test compounds were added to the assay plate and agonist activity was monitored as fluorescence for 80 seconds with a FLIPR (488 nm excitation; 510-570 nm emission; Molecular Devices). After 20-30 min. of incubation at 30° C., 20 nM MCP-1 (R&D; Roche) was added and fluorescence was monitored again for 80 seconds. Increases in intracellular calcium are reported as maximum fluorescence after agonist exposure minus basal fluorescence before exposure. Antagonist activity is indicated as inhibitor concentration required for 50% inhibition of specific calcium increases.

IC50 [nM]	Structure (SMILES)
16	O=C(/C=C/c1ccc(Cl)c(Cl)c1)N1CCC(=O)N(CC(O)CN2CCC3(CC3)C(O)C2)CC1 (racemic) [Example 309, (rac)-1-[(E)-3-(3,4-Dichloro-phenyl)-acryloyl]-4-[2-hydroxy-3-(4-hydroxy-6-aza-spiro[2.5]oct-6-yl)-propyl]-[1,4]diazepan-5-one]
191	CC1CCC(O)CN1CCCN1CCN(C(=O)/C=C/c2ccc(Cl)c(Cl)c2)CCC1=O (racemic) [Example 272]
720	COCCN1CCN(CCCCN2CCN(C(=O)/C=C/c3ccc(F)c(Cl)c3)CCC2=O)CC1 [Example 399]
19	O=C(/C=C/c1ccc(F)c(F)c1)N1CCC(=O)N(CCCN2CCC3(CC3)C(O)C2)CC1 (stereo not drawn) [Example 495]
373	C[N+]1(CCCN2CCN(C(=O)C=Cc3ccc(Cl)c(Cl)c3)CCC2=O)CCCCC1 [Example 154, 1-(3-{4-[3-(3,4-Dichloro-phenyl)-acryloyl]-7-oxo-[1,4]diazepan-1-yl}-propyl)-1-methyl-piperidinium iodide]
13	O=C(/C=C/c1ccc(Cl)c(Cl)c1)N1CCC(=O)N(CCCN2CCC(c3ccccc3)CC2)CC1 [Example 45, 1-[(E)-3-(3,4-Dichloro-phenyl)-acryloyl]-4-[3-(4-phenyl-piperidin-1-yl)-propyl]-[1,4]diazepan-5-one]
352	O=C(/C=C/c1ccc(Cl)c(Cl)c1)N1CCC(=O)N(CCCCN2CC[C@@H](O)[C@@H](F)C2)CC1 (racemic) [Example 430, (rac,cis)-1-[(E)-3-(3,4-Dichloro-phenyl)-acryloyl]-4-[4-(3-fluoro-4-hydroxy-piperidin-1-yl)-butyl]-[1,4]diazepan-5-one]
757	O=C1CC2(CCN(CCCN3CCN(C(=O)/C=C/c4ccc(Cl)c(Cl)c4)CCC3=O)CC2)CN1 [Example 88, 8-(3-{4-[(E)-3-(3,4-Dichloro-phenyl)-acryloyl]-7-oxo-[1,4]diazepan-1-yl}-propyl)-2,8-diaza-spiro[4.5]decan-3-one]
598	CC1CCCCC1NCCN1CCN(C(=O)C=Cc2ccc(Cl)c(Cl)c2)CCC1=O (mixture of isomers) [Example 104, cis/trans-1-[(E)-3-(3,4-Dichloro-phenyl)-acryloyl]-4-[3-(2-methyl-cyclohexylamino)-ethyl]-[1,4]diazepan-5-one]
310	O=C(/C=C/c1ccc(F)c(Cl)c1)N1CCC(=O)N(CCCCN2CCCC(CO)C2)CC1 (racemic) [Example 385]
217	O=C(/C=C/c1ccc(Cl)c(Cl)c1)N1CCC(=O)N(CCCN2CCC(c3cc[nH]n3)CC2)CC1 [Example 57, 1-[(E)-3-(3,4-Dichloro-phenyl)-acryloyl]-4-{3-[4-(1H-pyrazol-3-yl)-piperidin-1-yl]-propyl}-[1,4]diazepan-5-one]
644	O=C(/C=C/c1ccc(F)c(Cl)c1)N1CCC(=O)N(CCCN2CCC[C@@H](O)C2)CC1 [Example 193]
232	COCC1CCC(O)CN1CCCCN1CCN(C(=O)/C=C/c2ccc(Cl)c(Cl)c2)CCC1=O (racemic) [Example 479]
381	CC1C(O)CCCN1CCCCN1CCN(C(=O)C=Cc2ccc(F)c(Cl)c2)CCC1=O (stereo not drawn) [Example 388]
197	O=C(C=Cc1ccc(Cl)c(Cl)c1)N1CCC(=O)N(CCCNC2CCC(O)(c3ccccn3)CC2)CC1 (stereo not drawn) [Example 65, trans-1-[(E)-3-(3,4-Dichloro-phenyl)-acryloyl]-4-[3-(4-hydroxy-4-pyridin-2-yl-cyclohexylamino)-propyl]-[1,4]diazepan-5-one]
600	CN(CCN1CCN(C(=O)/C=C/c2ccc(Cl)c(Cl)c2)CCC1=O)C1CCOCC1 [Example 134, 1-[(E)-3-(3,4-Dichloro-phenyl)-acryloyl]-4-{3-[methyl-(tetrahydro-pyran-4-yl)-amino]-ethyl}-[1,4]diazepan-5-one]
780	CC1C(O)CCCN1CCCN1CCN(C(=O)C=Cc2ccc(F)c(Cl)c2)CCC1=O (mixture of isomers) [Example 208, (rac,trans)-1-[(E)-3-(3-Chloro-4-fluoro-phenyl)-acryloyl]-4-[3-(3-hydroxy-2-methyl-piperidin-1-yl)-propyl]-[1,4]diazepan-5-one]
19	CC1(CO)CCN(CC(O)CN2CCN(C(=O)C=Cc3ccc(F)c(Cl)c3)CCC2=O)CC1O [Example 340, 1-[(E)-3-(3-Chloro-4-fluoro-phenyl)-acryloyl]-4-[(S)-2-hydroxy-3-((cis)-3-hydroxy-4-hydroxymethyl-4-methyl-piperidin-1-yl)-propyl]-[1,4]diazepan-5-one]
1020	O=C(/C=C/c1ccc2ccccc2c1)N1CCC(=O)N(CCN2CCCC2)CC1 [Example 25, 1-(E)-(3-Naphthalen-2-yl-acryloyl)-4-(2-pyrrolidin-1-yl-ethyl)-[1,4]diazepan-5-one]
342	CC1(CO)CCN(CCCCN2CCN(C(=O)C=Cc3ccc(Cl)c(F)c3)CCC2=O)CC1O (stereo not drawn) [Example 412]
264	CC1(CO)CCCCN1CCCCN1CCN(C(=O)/C=C/c2ccc(F)c(Cl)c2)CCC1=O (racemic) [Example 407]
23	N#CC1(c2ccccc2)CCN(CCCN2CCN(C(=O)/C=C/c3ccc(Cl)c(Cl)c3)CCC2=O)CC1 [Example 60, 1-(-3-{4-[(E)-3-(3,4-Dichloro-phenyl)-acryloyl]-7-oxo-[1,4]diazepan-1-yl}-propyl)-4-phenyl-piperidine-4-carbonitrile]
566	O=C(/C=C/c1ccc(Cl)c(Cl)c1)N1CCC(=O)N(CCCN2CCC(O)C2)CC1 (racemic) [Example 71, (+/−)-1-[(E)-3-(3,4-Dichloro-phenyl)-acryloyl]-4-[3-(3-hydroxy-pyrrolidin-1-yl)-propyl]-[1,4]diazepan-5-one]
660	COC(=O)NC1CCN(CCCN2CCN(C(=O)/C=C/c3ccc(Cl)c(Cl)c3)CCC2=O)CC1 [Example 244]
301	O=C(/C=C/c1ccc(Cl)c(Cl)c1)N1CCC(=O)N(C[C@@H](O)CN2CC[C@@H](CO)[C@H](O)C2)CC1 (mixture of isomers) [Example 333, 1-[(E)-3-(3,4-Dichloro-phenyl)-acryloyl]-4-[(S)-2-hydroxy-3-(trans-3-hydroxy-4-hydroxymethyl-piperidin-1-yl)-propyl]-[1,4]diazepan-5-one]
2	O=C(/C=C/c1ccc(Cl)c(Cl)c1)N1CCC(=O)N(C[C@@H](O)CN2CCC3(CC3)C(O)C2)CC1 (stereo partly drawn) [Example 327, 1-[(E)-3-(3,4-Dichloro-phenyl)-acryloyl]-4-[(S)-2-hydroxy-3-((−)-4-hydroxy-6-aza-spiro[2.5]oct-6-yl)-propyl]-[1,4]diazepan-5-one]
1340	N#CC1CCN(CCCN2CCN(C(=O)/C=C/c3ccc(F)c(Cl)c3)CCC2=O)CC1 [Example 199]
71	O=C(/C=C/c1ccc(F)c(Cl)c1)N1CCC(=O)N(C[C@@H](O)CN2CC[C@H](CO)[C@H](O)C2)CC1 (mixture of isomers) [Example 337, 1-[(E)-3-(3-Chloro-4-fluoro-phenyl)-acryloyl]-4-[(S)-2-hydroxy-3-(cis-3-hydroxy-4-hydroxymethyl-piperidin-1-yl)-propyl]-[1,4]diazepan-5-one]
999	O=C(/C=C/c1ccc(Cl)c(Cl)c1)N1CCC(=O)N(CC(O)CN2CCC3(CCCO3)CC2)CC1 (racemic) [Example 326]
9	O=C(/C=C/c1ccc(Cl)c(Cl)c1)N1CCC(=O)N(CCCN2CCC3(CC3)C(O)C2)CC1 (stereo not drawn) [Example 261]
